Assays:
[1] = Cohesive-adhesive balance (CAB) by AFM colloid probe; format: physicochemical; settings: for adhesive FP-Lactose interactions, times greater than cohesive FP-FP interactions (CAB analysis): equivalent contact geometry, 20° C., 45% RH; for adhesiveness to lactose (FIG. 29): comparison between batches
Excerpt: The cohesive-adhesive balance (CAB) approach of the AFM colloid probe technique is a development that enables direct quantification of the cohesive and adhesive nature—“the force balance” of an API within a formulation. It is a commercially available screening tool in determining the cohesive/adhesive force interactions between potential formulation components using milligrams or less of material.
The CAB approach measures the forces of interaction between API particles, mounted as colloid AFM probes, and well-defined crystalline surfaces of the API and carrier substrates. A CAB plot generated from the interaction of a number of probes allows a characteristic measurement of the cohesive nature of the API, in relation to its adhesive propensity with an excipient material to be quantified. The development of the CAB approach has overcome a number of the limitations associated with conventional AFM colloid probe methodologies, including issues regarding instrumental validation and the need to determine the true area of contact of the interacting surfaces. […] Drug-carrier combinations with a higher CAB ratio, such as >1, results in a higher fine particle fraction (FPF) upon aerosolisation, despite potential difference between the carriers in terms of size, shape, roughness and flowability. Drug-carrier combinations with a lower CAB ratio, such as, <1 result in greater […] of the active particle to the carrier, therefore the active particle is more likely to remain attached to the carrier. This means that in an inhaled composition, the active particle which remains attached to the carrier particle may not reach the lung and may be deposited in the throat or on the tongue. Preferably, the particles produced according to the present invention have much lower cohesiveness than particles prepared by other methods including micronization and milling. With respect to a measure of cohesiveness, since all substrates will be different with respect to their cohesive and adhesive properties, the CAB ratio is a dimensionless value which is a more useful measure for comparison. Preferably, the particles produced according to the present invention have CAB ratios with the carrier particles of 0.8-1.3, more preferably 0.9-1.2, more preferably, 1.0- 1.1. This is a careful balance between the cohesion of the drug with itself and the adhesion of the drug with the carrier.
The cohesive-adhesive balance (CAB) of micronized Fluticasone Propionate (FP) and batches of FP engineered by the method of the current invention (samples 2 and 3) and by a different method exemplified in WO 2008/114052 A1 (sample 4), as described in Example 1, were determined with respect to crystalline substrates of FP and lactose monohydrate. The CAB force balance of the different batches with respect to the crystalline substrates was determined as follows:
Particles (n=3) of all batches of FP were attached onto standard V-shaped tipless cantilevers (DNP-020, DI, CA, USA) using an epoxy resin glue (Araldite, Cambridge, UK).
Smooth crystals of lactose were produced on cooling of a heated saturated droplet sandwiched between cover slips. Smooth drug crystals were produced using sitting-drop anti-solvent crystallisation, in which the active was dissolved in acetone and the anti-solvent employed was water.
Individual force curves (n=1024) were conducted over a 10 μm×10 μm area at a scan rate of 4 Hz and a compressive load of 40 nN. Environmental conditions were maintained at a constant temperature of 20° C. (±1.5 ° C.) and relative humidity 45±3%.

[2] = Storage stability of FPF of binary DPI formulations at 25° C./75% RH; format: physicochemical
Description: All formulations were stored for one and three months at 25° C./75% RH. The FPF of the formulation containing micronized fluticasone propionate decreased by almost 50% after storage for one month and almost 70% after storage for three months compared to the FPF at t=0. However, the FPF of formulations containing particles prepared by the current invention were not as affected following storage in stress conditions. The FPF of sample 3 decreased 6% after storage for one month and decreased 3% after storage for three months compared to the FPF at t=0. The FPF of sample 2 decreased 7% after one months storage and 28% after three months storage compared to the FPF at t=0. There was a small yet statistically significant decrease, 29%, in the fine particle fraction of the formulation containing sample 4 which was prepared by alternative precipitation approach after one month with a decrease of 24% after 3 months storage compared to the FPF at t=0. This may be related to the planar morphology of the particles, and therefore, the particles are likely to develop greater adhesion to the lactose as result of capillary forces. It is clear that the FPF of samples 2 and 3 maintained a higher FPF than the micronized sample or sample 4 when stored for one or three months in the conditions described. The FPF of samples 2 and 3 decreased by a smaller percentage than the micronized sample when stored for one or three months in the conditions described. […] Sample 4 has a much lower FPF than samples 2 and 3 after storage for one or three months.

[3] = storage one month at 25° C./75% RH
[4] = storage three months at 25° C./75% RH

Structure (SMILES) | adhesion values (FP-lactose interaction) ([1]; AFM force measurement) | adhesive FP-Lactose interactions, times greater than cohesive FP-FP interactions (CAB analysis) ([1]; listed as sample 2 FP) | decrease of FPF compared to FPF at t=0 [2, 3] [%] | decrease of FPF compared to FPF at t=0 [2, 4] [%] | adhesive FP-Lactose interactions, times greater than cohesive FP-FP interactions (CAB analysis) ([1]; listed as sample 3 FP) | adhesiveness to lactose (FIG. 29) [1] | adhesive FP-Lactose interactions, times greater than cohesive FP-FP interactions (CAB analysis) ([1]; listed as sample 4 FP) | adhesion values ([1]; AFM force measurement) [nN] | adhesive FP-Lactose interactions, times greater than cohesive FP-FP interactions (CAB analysis) [1] | decrease of FPF compared to FPF at t=0 ([2]; storage one month at 25° C./75% RH, listed as micronized fluticasone propionate) [%] | decrease of FPF compared to FPF at t=0 ([2]; storage three months at 25° C./75% RH, listed as micronized fluticasone propionate) [%]
CCC(=O)O[C@]1(C(=O)SCF)[C@H](C)C[C@H]2[C@@H]3C[C@H](F)C4=CC(=O)C=C[C@]4(C)[C@@]3(F)[C@@H](O)C[C@@]21C [Sample 2, Fluticasone propionate] | 128-169 nN | 1.17 | 7 | 28 | – | – | – | – | – | – | –
CCC(=O)O[C@]1(C(=O)SCF)[C@H](C)C[C@H]2[C@@H]3C[C@H](F)C4=CC(=O)C=C[C@]4(C)[C@@]3(F)[C@@H](O)C[C@@]21C [Sample 3, Fluticasone propionate] | 35-89 nN | – | 6 | 3 | 1.16 | – | – | – | – | – | –
CCC(=O)O[C@]1(C(=O)SCF)[C@H](C)C[C@H]2[C@@H]3C[C@H](F)C4=CC(=O)C=C[C@]4(C)[C@@]3(F)[C@@H](O)C[C@@]21C [Sample 4, fluticasone propionate, reference compound] | 400-800 nN | – | 29 | 24 | – | least adhesive to lactose and SX | almost equal | – | – | – | –
CCC(=O)O[C@]1(C(=O)SCF)[C@H](C)C[C@H]2[C@@H]3C[C@H](F)C4=CC(=O)C=C[C@]4(C)[C@@]3(F)[C@@H](O)C[C@@]21C [micronized FP, Fluticasone Propionate] | – | – | – | – | – | significantly more adhesive to lactose | – | 169 to 249 | 1.36 | ~50 | ~70

— patent publication US20110146678A1, “PROCESS FOR IMPROVING CRYSTALLINITY” (priority 2008, published 2011)
